± gives the expanded uncertainty stated by the source.
Experiments:
[1] = 101 kPa, Liquid; for viscosity: Capillary tube (Ostwald / Ubbelohde) method; for mass density: Pycnometric method
[2] = xn = mol fraction of the nth substance listed; settings: 101 kPa, Liquid, x2 = 0; for viscosity: Capillary tube (Ostwald / Ubbelohde) method; for mass density: Pycnometric method

| Compound | viscosity ([1]; 303.15 K) [mPa·s] | mass density ([1]; 303.15 K) [kg/m3] | viscosity ([1]; 308.15 K) [mPa·s] | mass density ([1]; 308.15 K) [kg/m3] | viscosity ([1]; 313.15 K) [mPa·s] | mass density ([1]; 313.15 K) [kg/m3] | viscosity ([1]; 318.15 K) [mPa·s] | mass density ([1]; 318.15 K) [kg/m3] | viscosity ([1]; 323.15 K) [mPa·s] | mass density ([1]; 323.15 K) [kg/m3] | viscosity ([2]; 303.15 K) [mPa·s] | viscosity ([2]; 308.15 K) [mPa·s] | mass density ([2]; 308.15 K) [kg/m3] | viscosity ([2]; 313.15 K) [mPa·s] | viscosity ([2]; 318.15 K) [mPa·s] | mass density ([2]; 318.15 K) [kg/m3] | viscosity ([2]; 323.15 K) [mPa·s] |
| --- | --- | --- | --- | --- | --- | --- | --- | --- | --- | --- | --- | --- | --- | --- | --- | --- | --- |
| OCCOCCO [diethylene glycol] | 22.16 ± 0.46 | 1109.48 ± 0.75 | 17.93 ± 0.44 | 1105.72 ± 0.75 | 14.71 ± 0.43 | 1102.11 ± 0.76 | 12.19 ± 0.42 | 1098.35 ± 0.76 | 10.19 ± 0.41 | 1094.94 ± 0.75 | – | – | – | – | – | – | – |
| O [water] + OCCOCCO | – | – | – | – | – | – | – | – | – | – | 0.801 ± 0.4 | 0.722 | 994.12 ± 0.39 | 0.656 | 0.598 | 990.3 ± 0.44 | 0.549 |

Source: the NIST ThermoML archive (doi:10.1021/je1009976)
